Results reported in patent publication US20240391940A1, “FUSED RING-CONTAINING COMPOUND, APPLICATION THEREOF, AND COMPOSITION CONTAINING SAME” (GenEros Biopharma Ltd., priority 2020, published 2024).
Where two headings read alike, the source gives them in different places.

Columns and labels:
[1] = test system: STAT5 Y694 phosphorylation; assay: HTRF experiment: STAT5 Y694 phosphorylation in Hela cells; assay type: cell-based, Human; details: for Inhibition rate @10 μM: 10 μM compound, 2 h pretreatment, interferon stimulation 30 min
Protocol: A multifunctional microplate reader (TECAN; […] F PLEX); 96-well cell culture plates (Bioyong), HTRF 384-well low volume plates (Cisbio; Cat #66PL384025); Human interferon 0 (IFN-0) (GenScript; Cat #P01574), STAT5 phospho-Y694 kits (Cisbio; Cat #64AT5PEG).
Hela cells (American Type Culture Collection (ATCC), CCL-2) were cultured in a 96-well plate with DMEM containing 5% fetal bovine serum at a density of 3×10^4 cells/well. The cells were incubated overnight in a 37° C., 5% carbon dioxide humidified incubator. The next day, the original DMEM in the 96-well plate was blotted, and equal volumes of medium containing different concentrations of compounds (stock solutions of compounds prepared with dimethyl sulfoxide were diluted to desired concentrations in medium) were added for 2 h of pretreatment. The plate was left to stand in a 37° C. incubator. Human interferon 0 was then added to a final concentration of 10 nM for stimulation. The plate was gently shaken so the contents were well mixed, and the plate was then left to stand in a 37° C. incubator for 30 min.
The medium was removed, and the plate was washed once with an appropriate volume of PBS and then blotted dry. Then 1×lysis buffer was added at 40 μL/well, and the plate was left to stand at room temperature for 30 min (preparation of 1 mL of 1× lysis buffer: mixing well 740 μL of ddH2O with 250 μL of 4× lysis buffer and […]). After 30 min, the cells were repeatedly pipetted until the lysis buffer was not viscous (bubbles were avoided) so that sufficient lysis was achieved.
In an HTRF 384-well low volume plate, 4 μL of an antibody premix (containing two antibodies: Cryptate and d2: the two antibodies were each 20-fold diluted with detection buffer and were then mixed in equal volume to form the antibody premix) and 16 μL of the cell lysate were added to each well. The plate was sealed with a sealing membrane and then incubated overnight at room temperature in a dark place.
After the overnight incubation, signals at 665 nm and 620 nm were detected separately on a multifunctional microplate reader. The calculation formula for the STAT5 Y694 phosphorylation assay is: Ratio=[(signal 665 nm)/(signal 620 nm)]×10^4. A dimethyl sulfoxide-only treatment group was set as a negative control (RatioNegative), and an interferon 0 stimulation group without compound addition was set as a positive control (RatioPositive). The inhibition rates of different samples against STAT5 Y694 phosphorylation were normalized: inhibition rate=[1−(RatioExperiment−RatioNegative)/(RatioPositive−RatioNegative)]×100.

[2] = PK profile in SD rats (i.v. / oral gavage, plasma LC-MS); assay type: in vivo; details: female, rat; for Vd: read-out: Vdss
Source text: Method: SD rats from acceptable sources (N=3, female, 6-8 weeks, weighing 200-230 g, purchased from JH Laboratory Animal Co. LTD, SCXK (SH) 2017-0012 20170012001153) or beagles (N=3, not experimentally naive animals, female, weighing 6.55-8.62 kg, purchased from Beijing Marshall Biotech Co. Ltd., quality inspection number SCXK (BJ) 2016-0001 110318201100068072) were selected and administered, by intravenous injection or oral gavage (3 animals per route), corresponding doses of the test compound GEN1-117 or GEN1-284s (the sample for intravenous injection was dissolved in a solution of 10% DMSO, 10% Soltol HS15 and 80% PBS, and the sample for oral administration was dissolved in a 0.5% aqueous methylcellulose solution). Peripheral blood samples (150 μL) were taken (at 0, 0.083, 0.25, 0.5, 1, 2, 4, 8 and 24 h for the intravenous injection route; at 0, 0.25, 0.5, 1, 2, 4, 8 and 24 h for the oral injection route; into K2-EDTA anticoagulant tubes; centrifuged at 2000 g at 4 C for 5 min within 15 min), and plasma was separated and subjected to LC-MS analysis (LC-MS/MS-37, triple Quad 6500) using the conventional method with diclofenac as an internal standard. Mass spectrometry conditions: ESI cation, MRM detection:
HPLC conditions: mobile phase A: 0.1% FA in water, mobile phase B: 0.1% FA in ACN
Chromatography column: Waters ACQUITY UPLC HSS T3 (2.1×50 mm, 1.8 μm)
A test sample standard curve was prepared from 1, 2, 10, 30, 100, 300, 1000, 2700 and 3000 ng/mL (50% ACN in water), and 3 μL of standard-curve solution was mixed with 57 μL of same-species blank plasma. A test plasma sample (60 μL) was well mixed with 6 μL of 10% FA in water, and 30 μL of the mixture was taken and well mixed with 200 μL of the internal standard compound diclofenac (40 ng/mL in ACN). After the resulting mixture was vortexed and shaken for 1 min and centrifuged at 5800 rpm for 10 min, 100 μL of the supernatant was transferred to a new test plate, and 1 μL of solution was loaded on an LC-MS/MS system.

[3] = iv, 1 mg/kg, GEN1-117 dosed i.v. 1 mg/kg
[4] = iv, 1 mg/kg, GEN1-284s dosed i.v. 1 mg/kg, analyte = labelled compound
[5] = iv, GEN1-117 dosed i.v. 1 mg/kg
[6] = po, 10 mg/kg, GEN1-117 dosed p.o. 10 mg/kg
[7] = po, 10 mg/kg, GEN1-284s dosed p.o. 10 mg/kg, analyte = labelled compound
[8] = po, GEN1-284s dosed p.o. 10 mg/kg, analyte = labelled compound
[9] = iv, GEN1-284s dosed i.v. 1 mg/kg, analyte = labelled compound

## O=C(Cc1ccc2ncccc2c1)N1CCC(n2c(=O)[nH]c3cccc(C(F)(F)F)c32)CC1 [GEN1-117, 1-(1-(2-(Quinolin-6-yl)acetyl)piperidin-4-yl)-7-(trifluoromethyl)-1H-benzo[d]imidazol-2(3H)-one]
[1]
  Inhibition rate @10 μM: 89.31%
[2]; [3]
  AUC(0-t): 1640 ng·h/mL
  half-life: 4.2 h
[2]; [4]
  AUC(0-t): 1510 ng·h/mL
  half-life: 4.16 h
[2]; [5]
  clearance: 10.3 mL/min/kg
  Vd: 2.75 L/kg
[2]; oral, GEN1-117 dosed p.o. 10 mg/kg vs i.v. 1 mg/kg
  bioavailability: 2.6%
[2]; [6]
  AUC(0-t): 423 ng·h/mL
  Cmax: 42.8 ng/mL
  Tmax: 4 h
  half-life: 4.28 h
[2]; [7]
  AUC(0-t): 14600 ng·h/mL
  Cmax: 2440 ng/mL
  Tmax: 2 h
  half-life: 3.82 h
[2]; [8]
  bioavailability: 96.3%

## O=C(Cc1ccc2ncccc2c1)N1CCC(n2c(=O)n(COP(=O)([O-])[O-])c3cccc(C(F)(F)F)c32)CC1.[Na+].[Na+] [GEN1-284 salt, (2-Oxo-3-(1-(2-(quinolin-6-yl)acetyl)piperidin-4-yl)-4-(trifluoromethyl)-2,3-dihydro-1H-benzo[d]imidazol-1-yl)methyl disodium phosphate]
[1]
  IC50: 2.6 µM
  Inhibition rate @10 μM: 82.46%
[2]; [9]
  AUC(0-t): 2750 ng·h/mL
  clearance: 6.23 mL/min/kg
  half-life: 0.39 h
  Vd: 0.047 L/kg
[2]; [7]
  Tmax: 0.42 h
[2]; [8]
  AUC(0-t): 5.72 ng·h/mL
  Cmax: 6.04 ng/mL
  half-life: 0.95 h
